Experimental data taken from patent US12492173B2, “Herbicidal substituted N-tetrazolyl aryl carboxamides” (Bayer Aktiengesellschaft, priority 2019, dated 2025).

What was measured:
Type in all cases: in vivo
Polygonum convolvulus = experiment: Post-emergence herbicidal action, POLCO
Outline: (§1)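 WP or EC formulations, diluted in water at 600 to 800 l/ha with 0.2% wetting agent, are sprayed onto green parts of one-leaf-stage plants grown in sandy loam. Visual assessment of percent damage relative to untreated controls follows after approximately 3 weeks in the greenhouse.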

Veronica persica [1] = experiment: Pre-emergence herbicidal action, VERPE; details: dosage 320 g/ha; for herbicidal activity VERPE: scored visually after 3 weeks vs untreated controls (100% = plants have died)
Outline: (§2)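 Seeds sown in sandy loam in pots and covered with soil; compounds formulated as WP or EC were sprayed onto the soil surface as aqueous suspension/emulsion at 600 to 800 l/ha water with 0.2% wetting agent. Greenhouse growth; visual damage scored after 3 weeks versus untreated controls (100% = plants died, 0% = like control).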

Viola tricolor [2] = experiment: Pre-emergence herbicidal action, VIOTR; parameters: key to Herbicidal action against VIOTR: % activity: 100 = plants have died, 0 = like control plants; details: for herbicidal activity VIOTR / herbicidal action VIOTR: dosage 320 g/ha; for herbicidal activity VIOTR: scored visually after 3 weeks vs untreated controls (100% = plants have died)
Outline: as §2

Veronica persica [3] = experiment: Post-emergence herbicidal action, VERPE; parameters: key: % herbicidal action vs untreated; 100 = plants died, 0 = like control; details: for Herbicidal action against VERPE: comparative experiment
Outline: as §1

Echinochloa crus-galli = experiment: Post-emergence herbicidal action, ECHCG; parameters: key: % herbicidal action vs untreated; 100 = plants died, 0 = like control; details: for Herbicidal action against ECHCG: comparative experiment
Outline: as §1

Viola tricolor [4] = experiment: Post-emergence herbicidal action, VIOTR; parameters: key: % herbicidal action vs untreated; 100 = plants died, 0 = like control
Outline: as §1

[5] = post-emergence, 20 g of a.i./ha

SMILES | herbicidal action POLCO (Polygonum convolvulus; Dosage 80 g/ha) | herbicidal activity VERPE (Veronica persica [1]) [%] | herbicidal activity VIOTR (Viola tricolor [2]) [%] | herbicidal action VERPE (Veronica persica [3]; Dosage 80 g/ha) | herbicidal action ECHCG (Echinochloa crus-galli; Dosage 80 g/ha) | herbicidal action VIOTR (Viola tricolor [4]; Dosage 80 g/ha) | herbicidal action POLCO (Polygonum convolvulus; post-emergence, dosage 80 g/ha) [%] | herbicidal action VERPE (Veronica persica [3]; post-emergence, dosage 80 g/ha) [%] | herbicidal action ECHCG (Echinochloa crus-galli; post-emergence, dosage 80 g/ha) [%] | herbicidal action VIOTR (Viola tricolor [4]; post-emergence, dosage 80 g/ha) [%] | also measured
CCn1nnnc1NC(=O)c1ccc(C(F)(F)F)c(CS(C)(=O)=O)c1Cl [Example 2-298] | 90 | 100 | 100 | 100 | 90 | 100 | – | – | – | – | –
CC[S+]([O-])Cc1c(C(F)(F)F)ccc(C(=O)Nc2nnnn2C)c1Cl (racemic) [Example 1-300] | – | 100 | 100 | – | – | – | 100 | 100 | 100 | 100 | –
CCn1nnnc1NC(=O)c1ccc(C(F)(F)F)c(C[S+](C)[O-])c1SC (stereo not drawn) [Example 2-162] | 90 | 90 | 100 | 90 | 90 | 100 | – | – | – | – | –
CCCn1nnnc1NC(=O)c1ccc(C(F)(F)F)c(CSCC(F)(F)F)c1Cl [Example 3-311] | 80 | – | – | 80 | 100 | 90 | – | – | – | – | herbicidal action VERPE (Veronica persica [1]): 100%; herbicidal action VIOTR (Viola tricolor [2]): 100%
Cn1nnnc1NC(=O)c1ccc(C(F)(F)F)c(C[S+]([O-])CC(F)(F)F)c1Cl (racemic) [Example 1-312] | – | 100 | 100 | – | – | – | 100 | 90 | 100 | 100 | –
Cn1nnnc1NC(=O)c1ccc(C(F)(F)F)c(CSCC2CC2)c1Cl [Example 1-314] | – | 100 | 100 | – | – | – | 100 | 100 | 100 | 100 | –
COCCSCc1c(C(F)(F)F)ccc(C(=O)Nc2nnnn2C)c1Cl [Example 1-305] | – | 100 | 100 | – | – | – | 100 | 90 | 100 | 100 | –
CCS(=O)(=O)Cc1c(C(F)F)ccc(C(=O)Nc2nnnn2C)c1Cl [Example 1-325] | 90 | 100 | 100 | 100 | 100 | 100 | – | – | – | – | –
CCn1nnnc1NC(=O)c1ccc(C(F)F)c(CS(=O)(=O)CC)c1Cl [Example 2-325] | 90 | 100 | 100 | 90 | 100 | 100 | – | – | – | – | –
CCn1nnnc1NC(=O)c1ccc(C(F)(F)F)c(CSCC(F)(F)F)c1Cl [Example 2-311] | 90 | 90 | 100 | 100 | 100 | 100 | – | – | – | – | –
CC[S+]([O-])Cc1c(C(F)(F)F)ccc(C(=O)Nc2nnnn2C)c1Br (racemic) [Example 1-384] | – | 100 | 100 | – | – | – | 90 | 100 | 100 | 100 | Herbicidal action against VIOTR (Viola tricolor [2]; comparative experiment, 80 g of a.i./ha): 100; Herbicidal action against VERPE (Veronica persica [3]; [5]): 100; Herbicidal action against ECHCG (Echinochloa crus-galli; [5]): 90; Herbicidal action against VIOTR (Viola tricolor [4]; comparative experiment, post-emergence, 20 g of a.i./ha): 100
CCCn1nnnc1NC(=O)c1ccc(C(F)(F)F)c(CSCC)c1C [Example 3-86] | 80 | – | – | 80 | 90 | 100 | – | – | – | – | herbicidal action VERPE (Veronica persica [1]): 100%; herbicidal action VIOTR (Viola tricolor [2]): 100%
CCCn1nnnc1NC(=O)c1ccc(C(F)F)c(CSCC)c1Cl [Example 3-323] | 80 | 100 | 100 | 90 | 100 | 90 | – | – | – | – | –
CCCn1nnnc1NC(=O)c1ccc(C(F)(F)F)c(CS(C)(=O)=O)c1Br [Example 3-382] | 80 | – | – | 90 | 90 | 90 | – | – | – | – | herbicidal action VERPE (Veronica persica [1]): 100%; herbicidal action VIOTR (Viola tricolor [2]): 90%
CCCn1nnnc1NC(=O)c1ccc(I)c(C[S+](C)[O-])c1Cl (stereo not drawn) [Example 3-363] | 90 | – | – | 100 | 100 | 100 | – | – | – | – | herbicidal action VERPE (Veronica persica [1]): 90%; herbicidal action VIOTR (Viola tricolor [2]): 100%
CCn1nnnc1NC(=O)c1ccc(C(F)F)c(C[S+]([O-])CC)c1Cl (stereo not drawn) [Example 2-324] | – | 100 | 100 | – | – | – | 100 | 100 | 100 | 100 | –
CSc1c(C(=O)Nc2nnnn2C)ccc(C(F)(F)F)c1C[S+](C)[O-] (stereo not drawn) [Example 1-162] | – | 90 | 100 | – | – | – | 90 | 100 | 100 | 100 | –
CCn1nnnc1NC(=O)c1ccc(C(F)(F)F)c(CSCCOC)c1Cl [Example 2-305] | – | 100 | 100 | – | – | – | 100 | 100 | 100 | 100 | –
CSCc1c(C(F)F)ccc(C(=O)Nc2nnnn2C)c1Cl [Example 1-320] | 80 | 100 | 100 | 100 | 100 | 100 | – | – | – | – | Herbicidal action against VERPE (Veronica persica [3]; post-emergence, 5 g of a.i./ha): 100; Herbicidal action against ECHCG (Echinochloa crus-galli; post-emergence, 5 g of a.i./ha): 100
CCCn1nnnc1NC(=O)c1ccc(C(F)(F)F)c(CS(C)(=O)=O)c1Cl [Example 3-298] | 90 | 100 | 100 | 100 | 90 | 100 | – | – | – | – | –
CCS(=O)(=O)Cc1c(C(F)(F)F)ccc(C(=O)Nc2nnnn2C)c1C [Example 1-88] | 90 | – | – | 100 | 90 | 100 | – | – | – | – | herbicidal action VERPE (Veronica persica [1]): 100%; herbicidal action VIOTR (Viola tricolor [2]): 100%
CCSCc1c(C(F)F)ccc(C(=O)Nc2nnnn2CC)c1Cl [Example 2-323] | – | 100 | 100 | – | – | – | 100 | 100 | 100 | 100 | –
